Assay [1] has as its target T1, menin/MLL (terbium chelate-labeled menin, FITC-MBM1 peptide) (Homo sapiens, UniProt O00255, T541A).
T1 construct: Menin (a.a 1-610-6xhis tag)
T1 sequence (O00255 with tags, fused parts or gaps T541A): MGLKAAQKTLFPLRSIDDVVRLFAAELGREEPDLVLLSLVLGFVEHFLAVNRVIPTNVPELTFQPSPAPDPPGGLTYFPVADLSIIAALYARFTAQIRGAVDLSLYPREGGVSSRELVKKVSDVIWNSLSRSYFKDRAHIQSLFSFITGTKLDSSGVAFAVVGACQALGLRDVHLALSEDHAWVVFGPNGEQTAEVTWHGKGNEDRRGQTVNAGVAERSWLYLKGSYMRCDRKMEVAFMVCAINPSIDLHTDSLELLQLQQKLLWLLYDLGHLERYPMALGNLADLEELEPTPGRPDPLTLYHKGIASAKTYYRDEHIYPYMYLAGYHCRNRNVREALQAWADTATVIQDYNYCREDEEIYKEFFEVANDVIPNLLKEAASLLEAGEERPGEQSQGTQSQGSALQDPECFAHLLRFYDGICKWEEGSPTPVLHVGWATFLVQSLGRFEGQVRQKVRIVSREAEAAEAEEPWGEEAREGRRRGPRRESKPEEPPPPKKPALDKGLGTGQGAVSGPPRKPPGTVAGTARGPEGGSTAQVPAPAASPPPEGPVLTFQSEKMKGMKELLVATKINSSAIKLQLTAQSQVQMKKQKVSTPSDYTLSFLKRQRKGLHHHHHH
Description: Menin/MLL homogenous time-resolved fluorescence (HTRF) assay. It is filed as binding. The settings on record: 30 min incubation. The method in brief:
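Percent inhibition, calculated from the 520/490 nm HTRF ratio against high and low controls, was fitted for IC50 with a 0.1 nM detection limit. Reactions held 200 pM Tb-menin and 75 nM FITC-MBM1 in pH 7.5 Tris buffer with 0.5% DMSO.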

The subject of another assay is KO-52 cells. Description: Proliferation assay, spheroid-like growth, KO-52 (MLL wildtype control cell line). It is filed as cell-based, human. The settings on record: KO-52 control cells, 8 days, confluence as measure of spheroid size, read-out: spheroid assay_OneTime KO-52 IC50. The method in brief:
(§1)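 Seed cells at linear-growth densities in low-attachment wells; add test compound at several concentrations, normalized to 0.3% DMSO; incubate 8 days at 37 °C; image spheroids and measure confluence; calculate absolute IC50 against DMSO and reference-compound controls.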

The test system of the next assay is MOLM14 cells. As to the kind of experiment: Proliferation assay, spheroid-like growth, MOLM14 (MLL-AF9 rearranged). Format: cell-based, human. Particulars: 8 days, confluence as measure of spheroid size, read-out: spheroid assay_OneTime MOLM14 IC50. The method in brief:
as §1

Where two headings read alike, the source gives them in different places.

In the case of `CC(C)[C@H]([C@H]1C[C@@H](N2CCC(O)CC2)C1)N1CC2(CCN(c3ncnnc3Oc3ccc(F)cc3-c3cncnc3C3CC3)C2)C1` (single isomer, unassigned) [Compound 22], the half-inhibitory concentration (IC50) in assay [1] is 0.0001 µM; in the assay with KO-52 cells (Homo sapiens, 192 h) it was 10.8 µM; in the assay with MOLM14 cells (Homo sapiens, MOLM-14, 192 h), 0.003 µM.
The matching figures for `CC(C)[C@@H]([C@H]1C[C@@H](N2CCC(C(=O)N(C)C)CC2)C1)N1CC2(CCN(c3ncnnc3Oc3ccc(F)cc3-c3ncncc3C3CC3)C2)C1` (single isomer, unassigned) [Compound 100]: 0.0001 µM, 9.81 µM and 0.033 µM.
Turning to `CC(C)C(C1CC(C)(O)C1)N1CC2(CCN(c3ncnnc3Oc3ccc(F)cc3-c3cncnc3C3CC3)C2)C1` (single isomer, unassigned) [Compound 159], the IC50 was 0.0003 µM in assay [1]; 1.1 µM with KO-52 cells (Homo sapiens, 192 h); 0.11 µM in the assay on MOLM14 cells (Homo sapiens, MOLM-14, 192 h).
`CC(C)[C@@H]([C@H]1C[C@@H](N(C)C)C1)N1CC2(CCN(c3ncnnc3Oc3ccc(F)cc3-c3nnccc3C3CC3)C2)C1` (single isomer, unassigned) [Compound 261a]: the IC50 in assay [1] was 0.00016 µM; in the assay on KO-52 cells (Homo sapiens, 192 h), more than 15 µM; in the assay on MOLM14 cells (Homo sapiens, MOLM-14, 192 h) it was 0.019 µM.
For `CC(C)[C@H]([C@H]1C[C@@H](N2CCC3(CCO3)CC2)C1)N1CC2(CCN(c3ncnnc3Oc3ccc(F)cc3-c3nnccc3C3CC3)C2)C1` (single isomer, unassigned) [Compound 252], the IC50 is 0.0127 µM in assay [1]; more than 15 µM in the assay with KO-52 cells (Homo sapiens, 192 h); 0.27 µM in the assay with MOLM14 cells (Homo sapiens, MOLM-14, 192 h).
The matching figures for `CC(C)[C@H]([C@H]1C[C@@H](NC2CCOCC2)C1)N1CC2(CCN(c3ncnnc3Oc3ccc(F)cc3-c3cncnc3C3CC3)C2)C1` (single isomer, unassigned) [Compound 163]: 0.0001 µM, 4.37 µM and 0.011 µM.
Take `CC(C)[C@@H]([C@H]1C[C@@H](N(C)C)C1)N1CC2(CCN(c3ncnnc3Oc3ccc(F)cc3-c3ncccc3C3CC3)C2)C1` (single isomer, unassigned) [Compound 153]: the IC50 in assay [1] was 0.0053 µM; in the assay with KO-52 cells (Homo sapiens, 192 h), 4.83 µM; with MOLM14 cells (Homo sapiens, MOLM-14, 192 h), 0.73 µM.
As to `CC(C)[C@@H]([C@H]1C[C@H](N2CCC(O)C(F)C2)C1)N1CC2(CCN(c3ncnnc3Oc3ccc(F)cc3-c3cncnc3C3CC3)C2)C1` (single isomer, unassigned) [Compound 86], the IC50 is 0.0172 µM in assay [1]; more than 15 µM in the assay on KO-52 cells (Homo sapiens, 192 h); 0.65 µM in the assay on MOLM14 cells (Homo sapiens, MOLM-14, 192 h).
As for `CCC(=O)N[C@H]1C[C@@H]([C@@H](C(C)C)N2CC3(CCN(c4ncnnc4Oc4ccc(F)cc4-c4cncnc4C4CC4)C3)C2)C1` (single isomer, unassigned) [Compound 356], the IC50 in assay [1] was 0.0003 µM; in the assay with KO-52 cells (Homo sapiens, 192 h) it was more than 15 µM; in the assay on MOLM14 cells (Homo sapiens, MOLM-14, 192 h), 0.011 µM.
The matching figures for `CC(C)[C@@H]([C@H]1C[C@H](N2C[C@H]3C[C@@H]2CO3)C1)N1CC2(CCN(c3ncnnc3Oc3ccc(F)cc3-c3cccnc3C3CC3)C2)C1` (single isomer, unassigned) [Compound 291]: 0.0002 µM, 1.07 µM and 0.024 µM.
For `CC(C)[C@H]([C@H]1C[C@@H](NC(=O)CC2COC2)C1)N1CC2(CCN(c3ncnnc3Oc3ccc(F)cc3-c3cncnc3C3CC3)C2)C1` (single isomer, unassigned) [Compound 296] the same measures were 0.0002 µM, more than 15 µM and 0.01 µM.
The matching figures for `CC(C)[C@H]([C@H]1C[C@@H](N2CC3(CCO3)C2)C1)N1CC2(CCN(c3ncnnc3Oc3ccc(F)cc3-c3cnncc3C3CC3)C2)C1` (single isomer, unassigned) [Compound 84]: 0.0055 µM, more than 15 µM and 0.22 µM.
`CC(C)[C@@H]([C@H]1C[C@@H](N2CC[C@H](S(C)(=O)=O)C2)C1)N1CC2(CCN(c3ncnnc3Oc3ccc(F)cc3-c3ncccc3C3CC3)C2)C1` (single isomer, unassigned) [Compound 285]: the IC50 in assay [1] was 0.0233 µM; in the assay with KO-52 cells (Homo sapiens, 192 h) it was more than 15 µM; in the assay with MOLM14 cells (Homo sapiens, MOLM-14, 192 h) it was more than 0.94 µM.
Turning to `COC1CN([C@H]2C[C@@H]([C@H](C(C)C)N3CC4(CCN(c5ncnnc5Oc5ccc(F)cc5-c5nnccc5C5CC5)C4)C3)C2)C1` (single isomer, unassigned) [Compound 260], the IC50 stood at 0.0001 µM in assay [1]; 3.25 µM in the assay with KO-52 cells (Homo sapiens, 192 h); 0.006 µM in the assay on MOLM14 cells (Homo sapiens, MOLM-14, 192 h).
For the molecule `CC(C)C([C@H]1C[C@@H](N)C1)N1CC2(CCN(c3ncnnc3Oc3ccc(F)cc3-c3cncnc3C3CC3)C2)C1` (single isomer, unassigned) [Compound 1b], the values for the IC50 (in assay [1]; in the assay on KO-52 cells; in the assay on MOLM14 cells) were 0.0004 µM, more than 15 µM and 0.2 µM, respectively.
On to `CNC(=O)c1cnc(N[C@H]2C[C@@H](C(C(C)C)N3CC4(CCN(c5ncnnc5Oc5ccc(F)cc5-c5cncnc5C5CC5)C4)C3)C2)o1` (single isomer, unassigned) [Compound 436], for which the concentration for half-maximal inhibition (IC50) in assay [1] was 0.00036 µM; in the assay on KO-52 cells (Homo sapiens, 192 h), 5.97 µM; with MOLM14 cells (Homo sapiens, MOLM-14, 192 h) it was 0.0099 µM.
Regarding `CC(=O)N[C@H]1C[C@@H]([C@@H](C(C)C)N2CC3(CCN(c4ncnnc4Oc4ccc(F)cc4-c4cnc(C#N)nc4C4CC4)C3)C2)C1` (single isomer, unassigned) [Compound 343], the IC50 stood at 0.0002 µM in assay [1]; 1.14 µM in the assay with KO-52 cells (Homo sapiens, 192 h); 0.015 µM with MOLM14 cells (Homo sapiens, MOLM-14, 192 h).
For the molecule `CC(=O)N[C@H]1C[C@@H]([C@@H](C(C)C)N2CC3(CCN(c4ncnnc4Oc4ccc(F)cc4-c4cncnc4C4CC4)C3)C2)C1` (single isomer, unassigned) [Compound 2a], the half-maximal inhibitory concentration (IC50) in assay [1] came to 0.0002 µM; in the assay with KO-52 cells (Homo sapiens, 192 h), 7 µM; in the assay on MOLM14 cells (Homo sapiens, MOLM-14, 192 h), 0.022 µM.
As to `CC(C)[C@@H]([C@H]1C[C@@H](N2CCC(O)C(F)C2)C1)N1CC2(CCN(c3ncnnc3Oc3ccc(F)cc3-c3cncnc3C3CC3)C2)C1` (single isomer, unassigned) [Compound 85], the IC50 in assay [1] was 0.0254 µM; in the assay on KO-52 cells (Homo sapiens, 192 h), more than 15 µM; with MOLM14 cells (Homo sapiens, MOLM-14, 192 h) it was 1.56 µM.
Regarding `CC(=O)N1CC[C@]12CCN([C@H]1C[C@@H]([C@@H](C(C)C)N3CC4(CCN(c5ncnnc5Oc5ccc(F)cc5-c5cncnc5C5CC5)C4)C3)C1)C2` (single isomer, unassigned) [Compound 60], the IC50 is 0.0002 µM in assay [1]; 3.37 µM in the assay on KO-52 cells (Homo sapiens, 192 h); 0.007 µM in the assay on MOLM14 cells (Homo sapiens, MOLM-14, 192 h).
For the molecule `CC(C)[C@H]([C@H]1C[C@@H](N(C)C2CCOCC2)C1)N1CC2(CCN(c3ncnnc3Oc3ccc(F)cc3-c3cncnc3C3CC3)C2)C1` (single isomer, unassigned) [Compound 164], the IC50 in assay [1] was 0.0001 µM; in the assay with KO-52 cells (Homo sapiens, 192 h) it was 1.41 µM; with MOLM14 cells (Homo sapiens, MOLM-14, 192 h), 0.01 µM.
Consider `COC1(C(=O)N[C@H]2C[C@@H]([C@@H](C(C)C)N3CC4(CCN(c5ncnnc5Oc5ccc(F)cc5-c5cncnc5C5CC5)C4)C3)C2)CC1` (single isomer, unassigned) [Compound 330], for which the 50% inhibitory concentration (IC50) in assay [1] is 0.0004 µM; in the assay on KO-52 cells (Homo sapiens, 192 h), 5.9 µM; in the assay on MOLM14 cells (Homo sapiens, MOLM-14, 192 h), 0.13 µM.

The term IC50 denotes the concentration at which inhibition is half-maximal.
